Source: patent US20030195170A1, “Novel polymorphs and pseudopolymorphs of risedronate sodium” (priority 2002, published 2003)

Tests used:
Assay type in all cases: physicochemical
[1] = Physical stability of crystal forms at high relative humidity (one week storage)
From the text: X-ray diffraction data described herein was obtained by the powder diffraction method. X-Ray powder diffraction data were obtained using methods known in the art with a SCINTAG powder X-Ray diffractometer model X'TRA equipped with a solid state detector. Copper radiation of 1.5418 Å was used. A round aluminum sample holder with a round zero background quartz plate, with cavity of 25 mm×0.5 mm.
Thermogravimetric analysis (TGA) is a technique of thermal analysis well known in the art and measures the change in weight of a sample as a function of temperature. The technique is particularly well suited for measurement of, for example, decomposition and desolvation. TGA results reported herein were obtained using a Mettler TG50. Sample size was between about 6 and about 15 mg. Samples were analyzed at a heating rate of 10° C./min from 25° C. to 250 C. The oven was purged with nitrogen gas at a flow rate of 40 ml/min. Standard alumina crucibles covered by lids with one hole were used.
(§1) The stability of crystalline forms of risedronate sodium against transformation to form A is measured by exposing a sample to an atmosphere having a percent relative humidity (RH or %RH) of at least about 50% at a temperature greater than room temperature for a period of time. It is convenient to evaluate the stability of a crystalline form of risedronate sodium against transformation to form A by exposing a sample to an atmosphere having RH of about 75% at a temperature of 40° C. for a period of at least 3 months. The experience of the skilled artisan teaches that a pharmaceutical that is stable under these conditions will be stable for at least 2 years at room temperature.

[2] = Stability of form B against transformation to form A at 40° C. / 75% RH
Method: X-ray diffraction analysis can be used to detect and quantify one crystalline form of risedronate sodium in another.
as §1

[3] = Stability test of risedronate tablets at 40° C., 75% RH (crystal form by X-Ray powder diffraction); details: 5 months, stressed conditions of 40° C. and 75% RH
From the text: The crystal form (detected from X-Ray powder diffraction data) of Risedronate active ingredient in the tablet are shown in the following table.

[4] = Physical stability of crystal forms at high relative humidity (one week storage); details: 80%-100% RH at room temperature for at least one week; 'not substantially' = not more than about 20%
[5] = relative humidity 80%, one week storage, listed as D (MS-273), monosodium salt

O=P([O-])(O)C(O)(Cc1cccnc1)P(=O)(O)O.[Na+] [Form A, 1-hydroxy-2(3-pyridinyl)ethylidene bis phosphonic acid monosodium salt, reference compound]
TGA Weight Loss (%) ([1]; relative humidity 80%, one week storage, listed as A (LB-91), monosodium salt): 13.6%

O=P([O-])(O)C(O)(Cc1cccnc1)P(=O)(O)O.[Na+] [Form B, 1-hydroxy-2(3-pyridinyl)ethylidene bis phosphonic acid monosodium salt]
Part of form B that transforms to form A ([2]; RH of 75% at 40° C. for at least three months): less than 20%
Conversion to form A hemipentahydrate ([2]; storage at 40° C. and 75% RH for 6 months, 'not substantially' = not more than about 20%): does not substantially convert
Stability of form B in tablets [3]: stable
Conversion to form A hemipentahydrate ([1]; 75% to 100% RH for one week or more, 'not substantially' = not more than about 20%): does not substantially convert
TGA Weight Loss (%) ([1]; relative humidity 80%, one week storage, listed as B (LB-89), monosodium salt): 6.5%

O=P([O-])(O)C(O)(Cc1cccnc1)P(=O)(O)O.[Na+] [Form C, 1-hydroxy-2(3-pyridinyl)ethylidene bis phosphonic acid monosodium salt]
Conversion to form A [4]: does not substantially convert
TGA Weight Loss (%) ([1]; relative humidity 80%, one week storage, listed as C (LB-87), monosodium salt): 16.0%
Resulting form ([1]; relative humidity 80%, one week storage, listed as form C, monosodium salt): a mixture of form C and form H

O=P([O-])(O)C(O)(Cc1cccnc1)P(=O)(O)O.[Na+] [Form D, 1-hydroxy-2(3-pyridinyl)ethylidene bis phosphonic acid monosodium salt]
Resulting form [1, 5]: D > B
TGA Weight Loss (%) [1, 5]: 1.1%
Resulting form ([1]; relative humidity 80%, one week storage, listed as form D, monosodium salt): a mixture of form D and form B
Resulting form ([1]; relative humidity 80-100%, one week storage, monosodium salt): form B

O=P([O-])(O)C(O)(Cc1cccnc1)P(=O)(O)O.[Na+] [Form E, 1-hydroxy-2(3-pyridinyl)ethylidene bis phosphonic acid monosodium salt]
TGA Weight Loss (%) ([1]; relative humidity 80%, one week storage, listed as E (MS-277), monosodium salt): 14.0%
Resulting form ([1]; relative humidity 80%, one week storage, listed as form E, monosodium salt): form A with a small quantity of form D

O=P([O-])(O)C(O)(Cc1cccnc1)P(=O)(O)O.[Na+] [Form F, 1-hydroxy-2(3-pyridinyl)ethylidene bis phosphonic acid monosodium salt]
TGA Weight Loss (%) ([1]; relative humidity 20-60%, one week storage): 4-6%
Resulting form ([1]; relative humidity 80%, one week storage, listed as form F, monosodium salt): a mixture of form BB
TGA Weight Loss (%) ([1]; relative humidity 80-100%, one week storage): 11.3-12.3%
Resulting form ([1]; relative humidity 80-100%, one week storage, listed as F (LB-104 160 C. 8 hr), monosodium salt): BB > A
Resulting form ([1]; relative humidity 80-100%, one week storage, listed as form F, monosodium salt): form BB
Resulting form ([1]; relative humidity 100%, one week storage, listed as form F, monosodium salt): form BB
Rearrangement to the hemipentahydrate form ([1]; up to 100% relative humidity, one week storage): does not substantially rearrange

O=P([O-])(O)C(O)(Cc1cccnc1)P(=O)(O)O.[Na+] [Form G, 1-hydroxy-2(3-pyridinyl)ethylidene bis phosphonic acid monosodium salt]
TGA Weight Loss (%) ([1]; relative humidity 20-80%, one week storage): 9.4-10.2%
TGA Weight Loss (%) ([1]; relative humidity 100%, one week storage): 12.6%
Resulting form ([1]; relative humidity 100%, one week storage, listed as G (MS-257 160 C. 8 hr), monosodium salt): G + A
Resulting form ([1]; relative humidity 100%, one week storage, listed as form G, monosodium salt): a mixture of form G and form A
